Measurements as given in BindingDB's records for doi:10.1016/j.bmcl.2004.01.021 (Atherogenics, 2004).

Molecular target: T1, Tumor necrosis factor receptor superfamily member 1A (Homo sapiens, UniProt P19438)
T1 sequence (P19438 whole entry): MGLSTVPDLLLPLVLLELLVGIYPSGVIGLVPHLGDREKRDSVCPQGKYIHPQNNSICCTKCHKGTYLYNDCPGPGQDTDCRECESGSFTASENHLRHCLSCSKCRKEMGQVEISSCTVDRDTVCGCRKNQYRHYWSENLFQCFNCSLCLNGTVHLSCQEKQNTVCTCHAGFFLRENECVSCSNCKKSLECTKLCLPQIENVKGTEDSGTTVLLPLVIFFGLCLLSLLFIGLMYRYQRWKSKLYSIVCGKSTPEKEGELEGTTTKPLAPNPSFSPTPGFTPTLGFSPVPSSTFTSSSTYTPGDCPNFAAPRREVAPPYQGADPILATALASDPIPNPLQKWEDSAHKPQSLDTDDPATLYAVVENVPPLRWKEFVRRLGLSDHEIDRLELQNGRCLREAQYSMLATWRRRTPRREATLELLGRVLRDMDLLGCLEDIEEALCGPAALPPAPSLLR
Test: ChEBML_224214
Source text: Inhibition of TNF-alpha-induced VCAM-1 expression

COc1ccc(/C=C/C(=O)c2ccc(OC)cc2OC)cc1 [1-(2,4-Dimethoxy-phenyl)-3-(4-methoxy-phenyl)-propenone] and COc1ccc(/C=C/C(=O)c2ccc(OC)c(OC)c2)cc1 [(E)-1-(3',4'-Dimethoxyphenyl)-3-(4''-methoxyphenyl)prop-2-en-1-one] are within 1.5-fold of each other in IC50: 7000 nM for the first, 6000 nM for the second.

COc1ccc(-c2cccs2)cc1/C=C/C(=O)c1ccc(OCc2ccc(N)cc2)c(OC)c1 [(E)-1-[4-(4-Amino-benzyloxy)-3-methoxy-phenyl]-3-(2-methoxy-5-thiophen-2-yl-phenyl)-propenone] and COc1ccc(-c2cccs2)cc1/C=C/C(=O)c1ccc(OCc2ccc(C(=O)O)cc2)c(OC)c1 [4-{2-Methoxy-4-[(E)-3-(2-methoxy-5-thiophen-2-yl-phenyl)-acryloyl]-phenoxymethyl}-benzoic acid] are within 1.5-fold of each other in IC50: 7000 nM for the first, 5000 nM for the second.

Going from COc1c(C(C)(C)C)cc(C(=O)/C=C/c2ccccc2)cc1C(C)(C)C [(E)-1-(3,5-Di-tert-butyl-4-methoxy-phenyl)-3-phenyl-propenone] to COc1ccc(/C=C/C(=O)c2cc(C(C)(C)C)c(OC)c(C(C)(C)C)c2)cc1 [(E)-1-(3,5-Di-tert-butyl-4-methoxy-phenyl)-3-(4-methoxy-phenyl)-propenone], the IC50 rises from 9000 nM to 17000 nM (1.9-fold).

Going from COc1ccc(OC)c(C(=O)/C=C/c2cc(-c3cccs3)ccc2OC)c1 [(E)-1-(2,5-Dimethoxy-phenyl)-3-(2-methoxy-5-thiophen-2-yl-phenyl)-propenone] to COc1ccc(-c2cccs2)cc1/C=C/C(=O)c1ccc(OC)c(OC)c1 [(E)-1-(3,4-Dimethoxy-phenyl)-3-(2-methoxy-5-thiophen-2-yl-phenyl)-propenone], the IC50 rises from 2000 nM to 3000 nM (1.5-fold).

COc1ccc(COc2c(OC)cc(C(=O)/C=C/c3cc(OC)c(OC)c(OC)c3)cc2OC)cc1OC [(E)-1-[4-(3,4-Dimethoxy-benzyloxy)-3,5-dimethoxy-phenyl]-3-(3,4,5-trimethoxy-phenyl)-propenone] and COc1ccc(COc2ccc(C(=O)/C=C/c3cc(OC)c(OC)c(OC)c3)cc2OC)cc1OC [(E)-1-[4-(3,4-Dimethoxy-benzyloxy)-3-methoxy-phenyl]-3-(3,4,5-trimethoxy-phenyl)-propenone] are the same in IC50: 2000 nM for the first, 2000 nM for the second.

First: COc1cc(-c2cccs2)ccc1C(=O)/C=C/c1ccc(F)c(F)c1 [(E)-3-(3,4-Difluoro-phenyl)-1-(2-methoxy-4-thiophen-2-yl-phenyl)-propenone]
Second: O=C(/C=C/c1ccc(F)c(-c2cccs2)c1)c1ccc(F)cc1 [(E)-1-(4-Fluoro-phenyl)-3-(4-fluoro-3-thiophen-2-yl-phenyl)-propenone]
The IC50 of the first is 2-fold lower: 2000 nM for the first, 4000 nM for the second.

Going from COc1cc(OC)cc(C(=O)/C=C/c2cc(-c3cccs3)ccc2OC)c1 [(E)-1-(3,5-Dimethoxy-phenyl)-3-(2-methoxy-5-thiophen-2-yl-phenyl)-propenone] to COc1ccc(-c2cccs2)cc1/C=C/C(=O)c1ccccc1 [(E)-3-(2-Methoxy-5-thiophen-2-yl-phenyl)-1-phenyl-propenone], the IC50 rises from 2000 nM to 5000 nM (2.5-fold). The first is the more potent here.

First: COc1ccc(-c2cccs2)cc1C=CC(=O)c1ccc(OCc2ccc(NC(=O)OC(C)(C)C)cc2)c(OC)c1 [(4-{2-Methoxy-4-[(E)-3-(2-methoxy-5-thiophen-2-yl-phenyl)-acryloyl]-phenoxymethyl}-phenyl)-carbamic acid tert-butyl ester]
Second: CCOC(=O)c1ccc(COc2ccc(C(=O)/C=C/c3cc(-c4cccs4)ccc3OC)cc2OC)cc1 [4-{2-Methoxy-4-[(E)-3-(2-methoxy-5-thiophen-2-yl-phenyl)-acryloyl]-phenoxymethyl}-benzoic acid ethyl ester]
The IC50 of the first is higher: over 50000 nM for the first, 4000 nM for the second.

COC1=C(c2ccc(C(=O)/C=C/c3cc(OC)c(OC)c(OC)c3)cc2OC)Oc2ccccc2O1 [(E)-1-[3-Methoxy-4-(3-methoxy-benzo[1,4]dioxin-2-yl)-phenyl]-3-(3,4,5-trimethoxy-phenyl)-propenone] and COc1cc(/C=C/C(=O)c2cc(OC)c(OCc3cccs3)c(OC)c2)cc(OC)c1OC [(E)-1-[3,5-Dimethoxy-4-(thiophen-2-ylmethoxy)-phenyl]-3-(3,4,5-trimethoxy-phenyl)-propenone] are within 1.5-fold of each other in IC50: 4000 nM for the first, 3000 nM for the second.

Compared with COc1cc(C(=O)/C=C/c2ccccc2)cc(OC)c1OC [3-phenyl-1-(3,4,5-trimethoxyphenyl)prop-2-en-1-one], COc1ccc(Br)cc1/C=C/C(=O)c1cc(OC)c(OC)c(OC)c1 [(E)-3-(5-Bromo-2-methoxy-phenyl)-1-(3,4,5-trimethoxy-phenyl)-propenone] is 6-fold lower in IC50: 6000 nM for the first, 1000 nM for the second.

COc1ccc(-c2cccs2)cc1/C=C/C(=O)c1ccc(OCc2ccncc2)c(OC)c1 [(E)-1-[3-Methoxy-4-(pyridin-4-ylmethoxy)-phenyl]-3-(2-methoxy-5-thiophen-2-yl-phenyl)-propenone] and COc1ccc(-c2cccs2)cc1/C=C/C(=O)c1ccc(OCc2cccnc2)c(OC)c1 [(E)-1-[3-Methoxy-4-(pyridin-3-ylmethoxy)-phenyl]-3-(2-methoxy-5-thiophen-2-yl-phenyl)-propenone] are within 1.5-fold of each other in IC50: 4000 nM for the first, 3000 nM for the second.

Compared with COc1ccc(-c2cc3ccccc3s2)cc1/C=C/C(=O)c1ccc(OC)c(OC)c1 [(E)-3-(5-Benzo[b]thiophen-2-yl-2-methoxy-phenyl)-1-(3,4-dimethoxy-phenyl)-propenone], COc1cc(OC)c(-c2cc3ccccc3s2)cc1/C=C/C(=O)c1ccc(OC)c(OC)c1 [(E)-3-(5-Benzo[b]thiophen-2-yl-2,4-dimethoxy-phenyl)-1-(3,4-dimethoxy-phenyl)-propenone] is 5.5-fold higher in IC50: 2000 nM for the first, 11000 nM for the second.

COc1cc(OC)c(-c2cccs2)cc1/C=C/C(=O)c1ccc(OC)c(OC)c1OC [(E)-3-(2,4-Dimethoxy-5-thiophen-2-yl-phenyl)-1-(2,3,4-trimethoxy-phenyl)-propenone] and COc1ccc(-c2ccc(C)s2)cc1/C=C/C(=O)c1cc(OC)c(OC)c(OC)c1 [(E)-3-[2-Methoxy-5-(5-methyl-thiophen-2-yl)-phenyl]-1-(3,4,5-trimethoxy-phenyl)-propenone] are the same in IC50: 2000 nM for the first, 2000 nM for the second.

COc1cc(/C=C/C(=O)c2cc(OC)c(OCc3ccco3)c(OC)c2)cc(OC)c1OC [(E)-1-[4-(Furan-2-ylmethoxy)-3,5-dimethoxy-phenyl]-3-(3,4,5-trimethoxy-phenyl)-propenone] and COc1cc(/C=C/C(=O)c2cc(OC)c(OC)c(OC)c2)cc(Br)c1OC [(E)-3-(3-Bromo-4,5-dimethoxy-phenyl)-1-(3,4,5-trimethoxy-phenyl)-propenone] are within 1.5-fold of each other in IC50: 3000 nM for the first, 4000 nM for the second.

Going from COc1cc(OC)c(-c2cc3ccccc3s2)cc1/C=C/C(=O)c1ccc(NC2OC(CO)C(O)C(O)C2O)cc1 (stereo not given) [(E)-3-(5-Benzo[b]thiophen-2-yl-2,4-dimethoxy-phenyl)-1-[4-(3,4,5-trihydroxy-6-hydroxymethyl-tetrahydro-pyran-2-ylamino)-phenyl]-propenone] to COc1cc(OC)c(-c2cc3ccccc3s2)cc1/C=C/C(=O)c1ccc(SCC(=O)O)cc1 [{4-[(E)-3-(5-Benzo[b]thiophen-2-yl-2,4-dimethoxy-phenyl)-acryloyl]-phenylsulfanyl}-acetic acid], the IC50 falls from 17000 nM to 1000 nM (17-fold).

Compared with COc1cc(/C=C/C(=O)c2ccc3c(c2)OC(O)(O)O3)cc(-c2cccs2)c1OC [(E)-1-(2,2-Dihydroxy-benzo[1,3]dioxol-5-yl)-3-(3,4-dimethoxy-5-thiophen-2-yl-phenyl)-propenone], COc1ccc(-c2cccs2)cc1/C=C/C(=O)c1ccc2c(c1)OCO2 [(E)-1-Benzo[1,3]dioxol-5-yl-3-(2-methoxy-5-thiophen-2-yl-phenyl)-propenone] is 4-fold higher in IC50: 1000 nM for the first, 4000 nM for the second. The first is the more potent here.

First: COc1cc(OC)c(-c2cc3ccccc3s2)cc1/C=C/C(=O)c1cc(OC)c(O)c(OC)c1 [(E)-3-(5-Benzo[b]thiophen-2-yl-2,4-dimethoxy-phenyl)-1-(4-hydroxy-3,5-dimethoxy-phenyl)-propenone]
Second: COc1cc(C(=O)C=Cc2cc(OC)c(OC)c(-c3ccc(C(C)=O)s3)c2)cc(OC)c1OC [(E)-3-[3-(5-Acetyl-thiophen-2-yl)-4,5-dimethoxy-phenyl]-1-(3,4,5-trimethoxy-phenyl)-propenone]
The IC50 of the first is 3-fold lower: 1000 nM for the first, 3000 nM for the second. The first is the more potent here.

Going from COc1ccc(C(=O)/C=C/c2ccc(-c3cccs3)cc2)cc1OC [(E)-1-(3,4-Dimethoxy-phenyl)-3-(4-thiophen-2-yl-phenyl)-propenone] to COc1ccc(-c2ccc(C)s2)cc1/C=C/C(=O)c1ccc(OC)c(OC)c1 [(E)-1-(3,4-Dimethoxy-phenyl)-3-[2-methoxy-5-(5-methyl-thiophen-2-yl)-phenyl]-propenone], the IC50 falls from 12000 nM to 2000 nM (6-fold). The second is the more potent here.

First: COc1cc(OC(C)(C)C(=O)O)c(/C=C/C(=O)c2ccc(C(F)(F)F)cc2)cc1-c1cccs1 [2-{5-Methoxy-2-[(E)-3-oxo-3-(4-trifluoromethyl-phenyl)-propenyl]-4-thiophen-2-yl-phenoxy}-2-methyl-propionic acid]
Second: COc1ccc(-c2cc(C)cs2)cc1/C=C/C(=O)c1ccc(OC)c(OC)c1 [(E)-1-(3,4-Dimethoxy-phenyl)-3-[2-methoxy-5-(4-methyl-thiophen-2-yl)-phenyl]-propenone]
The IC50 of the first is 2-fold higher: 4000 nM for the first, 2000 nM for the second.

Going from COc1ccc(-c2cc(C)cs2)cc1/C=C/C(=O)c1ccc2c(c1)OCO2 [(E)-1-Benzo[1,3]dioxol-5-yl-3-[2-methoxy-5-(4-methyl-thiophen-2-yl)-phenyl]-propenone] to COc1cc(OC)c(C(=O)/C=C/c2cc(Br)c(OC)c(OC)c2)cc1OC [(E)-3-(3-Bromo-4,5-dimethoxy-phenyl)-1-(2,4,5-trimethoxy-phenyl)-propenone], the IC50 falls from 4000 nM to 2000 nM (2-fold).
